Experimental data as given in PubChem BioAssay (NCI).
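96-well plates; 48 h exposure; 5 concentrations. Endpoints by linear interpolation between flanking doses. Not reached: highest tested concentration assigned. At the TGI there is no net growth.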

Key:
Experiment in all cases: growth of human tumour cells (NCI), 48 h
[1] = tested on: PC-3 prostate
[2] = tested on: HCT-116 colon
[3] = tested on: MDA-MB-231 breast
[4] = tested on: DU-145 prostate
[5] = tested on: RXF 393 renal
[6] = tested on: COLO 205 colon
[7] = tested on: IGROV1 ovarian
[8] = tested on: T-47D breast
[9] = tested on: MALME-3M melanoma
[10] = tested on: CAKI-1 renal
[11] = tested on: NCI/ADR-RES ovarian
[12] = tested on: SK-MEL-5 melanoma
[13] = tested on: SW-620 colon
[14] = tested on: 786-0 renal
[15] = tested on: UACC-257 melanoma
[16] = tested on: CCRF-CEM leukemia
[17] = tested on: SK-OV-3 ovarian
[18] = tested on: SK-MEL-2 melanoma
[19] = tested on: SF-268 CNS
[20] = tested on: NCI-H522 lung
[21] = tested on: MCF7 breast
[22] = tested on: MDA-MB-435
[23] = tested on: NCI-H23 lung
[24] = tested on: HS 578T breast
[25] = tested on: BT-549 breast
[26] = tested on: OVCAR-4 ovarian
[27] = tested on: HT29 colon
[28] = tested on: NCI-H226 lung
[29] = tested on: HL-60(TB) leukemia
[30] = tested on: A549 NSCLC
[31] = tested on: OVCAR-8 ovarian
[32] = tested on: HCT-15 colon
[33] = tested on: SNB-19 CNS
[34] = tested on: UO-31 renal
[35] = tested on: HCC-2998 colon
[36] = tested on: HOP-92 NSCLC
[37] = tested on: OVCAR-5 ovarian
[38] = tested on: SK-MEL-28 melanoma
[39] = tested on: MOLT-4 leukemia
[40] = tested on: U251 CNS
[41] = tested on: ACHN renal
[42] = tested on: TK-10 renal
[43] = tested on: NCI-H460 lung
[44] = tested on: M14 melanoma
[45] = tested on: SF-539 CNS
[46] = tested on: K-562 leukemia
[47] = tested on: KM12 colon
[48] = tested on: SF-295 CNS
[49] = tested on: LOX IMVI melanoma
[50] = tested on: A498 renal
[51] = tested on: MDA-N
[52] = tested on: EKVX NSCLC
[53] = tested on: UACC-62 melanoma
[54] = tested on: SN12C renal
[55] = tested on: OVCAR-3 ovarian
[56] = tested on: RPMI-8226 leukemia
[57] = tested on: HOP-62 NSCLC

Compound `O=C(OCc1ccccc1[N+](=O)[O-])N1c2ccccc2[C@@]23O[C@]24CCC[C@H]3C#C/C=C\C#C[C@H]14` has a TGI [1] greater than 100 µM, a TGI [2] greater than 100 µM and a TGI [3] greater than 100 µM. The TGI [4] was greater than 100 µM, the TGI [5] was greater than 100 µM and the TGI [6] was greater than 100 µM. The TGI [7] was greater than 100 µM, the TGI [8] was greater than 100 µM and the TGI [9] was greater than 100 µM. It also gave a TGI [10] greater than 100 µM, a TGI [11] greater than 100 µM and a TGI [12] greater than 100 µM. For the same compound, the TGI [13] was greater than 100 µM, the TGI [14] was greater than 100 µM and the TGI [15] was greater than 100 µM. The TGI [16] was 66.6 µM, the TGI [17] was greater than 100 µM and the TGI [18] was greater than 100 µM. For the same compound, the TGI [19] was greater than 100 µM, the TGI [20] was greater than 100 µM and the TGI [21] was greater than 100 µM. It also gave a TGI [22] greater than 100 µM, a TGI [23] greater than 100 µM and a TGI [24] greater than 100 µM. For the same compound, the TGI [25] was greater than 100 µM, the TGI [26] was greater than 100 µM and the TGI [27] was greater than 100 µM. It also gave a TGI [28] greater than 100 µM, a TGI [29] of 25.9 µM and a TGI [30] greater than 100 µM. For the same compound, the TGI [31] was greater than 100 µM, the TGI [32] was greater than 100 µM and the TGI [33] was greater than 100 µM. The TGI [34] was greater than 100 µM, the TGI [35] was greater than 100 µM and the TGI [36] was greater than 100 µM. The TGI [37] was greater than 100 µM, the TGI [38] was greater than 100 µM and the TGI [39] was 8.11 µM. The TGI [40] was greater than 100 µM, the TGI [41] was greater than 100 µM and the TGI [42] was greater than 100 µM. The TGI [43] was greater than 100 µM, the TGI [44] was greater than 100 µM and the TGI [45] was greater than 100 µM. For the same compound, the TGI [46] was greater than 100 µM, the TGI [47] was greater than 100 µM and the TGI [48] was greater than 100 µM. For the same compound, the TGI [49] was greater than 100 µM, the TGI [50] was greater than 100 µM and the TGI [51] was greater than 100 µM. The TGI [52] was greater than 100 µM, the TGI [53] was greater than 100 µM and the TGI [54] was 68.2 µM. For the same compound, the TGI [55] was greater than 100 µM.
`O=C1OS2(OC(=O)c3cccc4cccc2c34)c2ccccc21` (stereo not drawn) was tested, and the TGI [1] was greater than 100 µM, the TGI [2] was greater than 100 µM and the TGI [3] was greater than 100 µM. The TGI [4] was greater than 100 µM, the TGI [5] was greater than 100 µM and the TGI [6] was greater than 100 µM. It also gave a TGI [7] greater than 100 µM, a TGI [8] greater than 100 µM and a TGI [9] greater than 100 µM. For the same compound, the TGI [10] was greater than 100 µM, the TGI [11] was greater than 100 µM and the TGI [12] was greater than 100 µM. For the same compound, the TGI [13] was greater than 100 µM, the TGI [14] was greater than 100 µM and the TGI [15] was greater than 100 µM. It also gave a TGI [16] greater than 100 µM, a TGI [18] greater than 100 µM and a TGI [19] greater than 100 µM. For the same compound, the TGI [20] was greater than 100 µM, the TGI [21] was greater than 100 µM and the TGI [22] was greater than 100 µM. It also gave a TGI [23] greater than 100 µM, a TGI [24] greater than 100 µM and a TGI [25] greater than 100 µM. It also gave a TGI [26] greater than 100 µM, a TGI [27] greater than 100 µM and a TGI [28] greater than 100 µM. It also gave a TGI [29] greater than 100 µM, a TGI [30] greater than 100 µM and a TGI [56] greater than 100 µM. The TGI [31] was greater than 100 µM, the TGI [32] was greater than 100 µM and the TGI [33] was greater than 100 µM. The TGI [34] was greater than 100 µM, the TGI [57] was greater than 100 µM and the TGI [36] was greater than 100 µM. The TGI [37] was greater than 100 µM, the TGI [38] was greater than 100 µM and the TGI [39] was greater than 100 µM. For the same compound, the TGI [40] was greater than 100 µM, the TGI [41] was greater than 100 µM and the TGI [42] was greater than 100 µM. It also gave a TGI [44] greater than 100 µM, a TGI [45] greater than 100 µM and a TGI [46] greater than 100 µM. It also gave a TGI [47] greater than 100 µM, a TGI [48] greater than 100 µM and a TGI [49] greater than 100 µM. For the same compound, the TGI [50] was greater than 100 µM, the TGI [51] was greater than 100 µM and the TGI [52] was greater than 100 µM. The TGI [54] was greater than 100 µM and the TGI [55] was greater than 100 µM.
